Test results from ChEMBL document CHEMBL1128442, “8-Substituted O6-benzylguanine, substituted 6(4)-(benzyloxy)pyrimidine, and related derivatives as inactivators of human O6-alkylguanine-DNA alkyltransferase” (J Med Chem, 1995).

Legend:
[1] = biological target: T1, Methylated-DNA--protein-cysteine methyltransferase (Homo sapiens) (UniProt P16455); conditions: HT-29
T1 sequence (whole entry): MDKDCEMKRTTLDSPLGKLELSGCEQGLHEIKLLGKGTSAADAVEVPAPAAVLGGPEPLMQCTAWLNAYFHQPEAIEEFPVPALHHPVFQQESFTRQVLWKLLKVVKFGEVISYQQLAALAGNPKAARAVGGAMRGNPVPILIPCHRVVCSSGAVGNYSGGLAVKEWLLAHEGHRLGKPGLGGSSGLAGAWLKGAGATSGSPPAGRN
Description: AGT-inactivating activity was determined by 50% inactivation in HT-29 cell free extract upon incubation for 30 min

[2] = biological target: T1, Methylated-DNA--protein-cysteine methyltransferase (Homo sapiens); conditions: HT-29; remark: listed apart in the source
Description: AGT-inactivating activity was determined by 50% inactivation in HT-29 cells upon incubation for 4 h

| SMILES | ED50 [1] | ED50 [2] |
| --- | --- | --- |
| Nc1ncnc(OCc2ccccc2)c1[N+](=O)[O-] | 28000 nM | 8000 nM |
| Nc1nc(OCc2ccccc2)c2[nH]c(O)nc2n1 | 300 nM | 150 nM |
| Oc1nc(OCc2ccccc2)c2[nH]cnc2n1 | 60000 nM | 35000 nM |
| Nc1cc(OCc2ccccc2)nc(N)n1 | 15000 nM | 5000 nM |
| Nc1nc(N)c(N=O)c(OCc2ccccc2)n1 | 60 nM | 20 nM |
| Nc1nc(OCc2ccccc2)c2[nH]c(N)nc2n1 | 700 nM | 2000 nM |
| Cc1nc2[nH]c(N)nc(OCc3ccccc3)c-2n1 | 300 nM | 100 nM |
| Fc1nc(OCc2ccccc2)c2[nH]cnc2n1 | 48000 nM | 12000 nM |
| CN(C)c1nc(OCc2ccccc2)c2[nH]cnc2n1 | 200000 nM | 110000 nM |
| Nc1ncc([N+](=O)[O-])c(OCc2ccccc2)n1 | 400 nM | 50 nM |
| Nc1nc(OCc2ccccc2)c2[nH]c(Br)nc2n1 | 80 nM | 60 nM |
| Oc1nc(OCc2ccccc2)c2[nH]c(O)nc2n1 | 25000 nM | 45000 nM |
| Nc1nc(OCc2ccccc2)c2[nH]c(C(F)(F)F)nc2n1 | 400 nM | 250 nM |
| Cc1nc(N)nc(OCc2ccccc2)c1[N+](=O)[O-] | 400 nM | 60 nM |
| Nc1nc(N)c(N)c(OCc2ccccc2)n1 | 400 nM | 300 nM |
| CC(=O)Nc1nc(OCc2ccccc2)c2[nH]c(O)nc2n1 | 65000 nM | 11000 nM |
| Nc1nc(N)c(Br)c(OCc2ccccc2)n1 | 2000 nM | 800 nM |
| CNc1nc(OCc2ccccc2)c2[nH]cnc2n1 | 160000 nM | 60000 nM |
| Nc1nc(N)nc(OCc2ccccc2)n1 | 4000 nM | 1000 nM |
| Nc1nc(OCc2ccccc2)c2[nH]nnc2n1 | 70 nM | 60 nM |
